# Source: patent US9677109B2, “Rapid determination of microbial growth and antimicrobial susceptibility” (priority 2013, dated 2017)
# How the values were obtained:
# [1] = tested on: E. coli; assay: Plasmolysis (cell size response to osmotic pressure); format: cell-based; conditions: exposed to 0.9% NaCl
# Excerpt: Plasmolysis is a method of detecting membrane integrity by exposing cells to a very hypertonic solution, such as may be performed by subjecting a cell to osmotic pressure by manipulating the concentration of a solute, for example, sodium chloride.
# [2] = tested on: Enteric; assay: MADM (BACcel) growth analysis sensitivity, surveillance mini-BAL; format: cell-based; conditions: specimen 005-D7, BACcel ID Enteric, 1.26 × 10^5 CFU/ml
# Description: (§1) Adult MICU patients with identified surrogate were included within 72 hours of intubation and if anticipated to require MV for >48 h. Moribund state or pregnancy were exclusions. Surveillance mini-BAL (Combicath, Plastimed) was performed on Day 1, 3, 5, 7 and 10 of MV. Samples were split and processed for both a) routine respiratory quantitative microbiological culture and sensitivity assays (>48 h result availability) and b) rapid (<8 h) flowcell/surface-capture assays using the MADM system. Viable microorganisms were identified using growth analysis enhanced by a focused VAP antibody panel (S. aureus, P. aeruginosa, A. baumannii). Untypable organisms were also reported. Sensitivity was assessed using growth analysis. Attending physicians were blinded to MADM system results.
# (§2) BAL sample were prepared, removing debris and separating microorganisms from other sample material. Sample microorganisms were introduced into a multichannel fluidic cassette as described elsewhere herein. Bacteria were concentrated and retained on the lower surface of all flowcells using low-voltage electrical field (5 min). Antibody labeling of bacteria in flowcells was used to aid identification.
# (§3) The automated digital microscopy system was used to perform darkfield imaging of 10 fields of view every 10 minutes for 180 minutes in each flowcell channel. Initial epifluorescence imaging was also performed for antibody detection. […] Identification consisted of probability scores based on microorganism morphology and growth rates. Antibody labeling identification data was also incorporated. Observed microorganisms were then classified as STAU, PSAE, or non-target. Antibiotic responses were used to aid identification when appropriate. Quantitation was performed by counting identified microorganism and computing original specimen CFU/mL.
# [3] = tested on: S. maltophilia (Steno); assay: as above; format: cell-based
# Description: as §1, §2, §3
# [4] = tested on: Staphylococcus aureus (STAU); assay: MADM resistance phenotype test, respiratory specimens; format: cell-based
# Description: (§4) (ABCC). Concurrent quantitative culture (qCx) was performed on specimens.
# (§5) 20 μL samples of prepared specimen were pipetted into independent flowcell channels and a low-voltage electrical field was applied for 5 minutes. The electrical field concentrated bacteria onto a functional surface coating that immobilized the bacteria on the lower flowcell surface. Each flowcell channel received only one type of test reagent solution that contained a selective agent if required (only for channels used to test AB, sulbactam 32 μg/mL).
# (§6) The instrument acquired images at 10-minutes intervals for 180 minutes, using 10 fields of view in each flowcell channel through a 20× objective. Imaging used darkfield illumination. Identification variables included response to selective agents (AB with sulbactam), cell morphology, growth morphology, and growth rate.
# (§7) Identification algorithms applied to each individual immobilized bacterial cell. The system measured the amount of change in mass over time to compute growth rates. Identification consisted of computing and combining probability scores for morphology, response to selective media, and growth rates to produce a receiver operating characteristic curve (ROC) to derive classification criteria.
# [5] = tested on: Staphylococcus aureus (STAU); assay: Culture (Cx) susceptibility result, respiratory specimens; format: cell-based; also: key: S: susceptible; R: resistant
# Description: (§8) DHMC specimens were 7-21 days old. […] Controls used standard culturing methods (Cx).
# as §4
# [6] = tested on: Pseudomonas aeruginosa (PSAE); assay: MADM resistance phenotype test, respiratory specimens; format: cell-based; conditions: for MADM resistance phenotype: PSAE
# Description: as §4, §5, §6, §7
# [7] = tested on: Acinetobacter spp. (ABCC); assay: as above; format: cell-based, Acinetobacter sp.; conditions: for MADM resistance phenotype: ABCC specimen (specimen id not given)
# [8] = tested on: Pseudomonas aeruginosa (PSAE); assay: Culture (Cx) susceptibility result, respiratory specimens; format: cell-based
# Description: as §8, §4
# [9] = tested on: Acinetobacter spp. (ABCC); assay: as above; format: cell-based, Acinetobacter sp.; conditions: ABCC specimen (specimen id not given)
# Description: as §8, §4
# [10] = specimen 006-D1, BACcel ID Steno, 7.68 × 10^5 CFU/ml
# [11] = specimen 006-D3, BACcel ID Steno, 1.60 × 10^4 CFU/ml
smiles,measurement,setting,value
"[Cl-].[Na+] [NaCl, sodium chloride]",cells that did not exhibit a response,[1]; heat killed cells,90%
same,cells decreasing in size,[1]; overnight refrigerator stock cultures,77%
"CC(C)(O/N=C(\C(=O)N[C@@H]1C(=O)N2C(C(=O)[O-])=C(C[n+]3ccccc3)CS[C@H]12)c1csc(N)n1)C(=O)O [CAZ, ceftazidime]","Phenotype, sensitivity",[2],all growth
same,"Phenotype, sensitivity",[3]; [10],"growth, TZP-"
same,"Phenotype, sensitivity",[3]; [11],"growth, TZP-"
"CCC[C@@H]1C[C@@H](C(=O)N[C@@H]([C@H]2O[C@H](SC)[C@H](O)[C@@H](O)[C@H]2O)[C@H](C)Cl)N(C)C1 [CLI, clindamycin]",MADM resistance phenotype,"[4]; specimen DH 425, Mini-BAL",S
same,MADM resistance phenotype,"[4]; specimen DH 427, Mini-BAL",S
same,MADM resistance phenotype,"[4]; specimen DH 439, Mini-BAL",S
same,MADM resistance phenotype,"[4]; specimen DH 440, BAL",S
same,MADM resistance phenotype,"[4]; specimen DH 457, BAL",S
same,MADM resistance phenotype,"[4]; specimen DH 485, BAL",S
same,MADM resistance phenotype,"[4]; specimen DH 509, BAL",S
same,MADM resistance phenotype,"[4]; specimen DH 514, Mini-BAL",S
same,MADM resistance phenotype,"[4]; specimen DH 543, BAL",S
same,MADM resistance phenotype,"[4]; specimen DH 550, BAL",S
same,MADM resistance phenotype,"[4]; specimen DH 556, Mini-BAL",S
same,MADM resistance phenotype,"[4]; specimen T12, ETA",S
same,Cx (culture result) susceptibility,"[5]; specimen DH 425, Mini-BAL",S
same,Cx (culture result) susceptibility,"[5]; specimen DH 427, Mini-BAL",S
same,Cx (culture result) susceptibility,"[5]; specimen DH 439, Mini-BAL",S
same,Cx (culture result) susceptibility,"[5]; specimen DH 440, BAL",S
same,Cx (culture result) susceptibility,"[5]; specimen DH 457, BAL",S
same,Cx (culture result) susceptibility,"[5]; specimen DH 485, BAL",S
same,Cx (culture result) susceptibility,"[5]; specimen DH 509, BAL",S
same,Cx (culture result) susceptibility,"[5]; specimen DH 514, Mini-BAL",S
same,Cx (culture result) susceptibility,"[5]; specimen DH 543, BAL",S
same,Cx (culture result) susceptibility,"[5]; specimen DH 550, BAL",S
same,Cx (culture result) susceptibility,"[5]; specimen DH 556, Mini-BAL",S
same,Cx (culture result) susceptibility,"[5]; specimen T12, ETA",S
"NCC[C@H](O)C(=O)N[C@@H]1C[C@H](N)[C@@H](O[C@H]2O[C@H](CN)[C@@H](O)[C@H](O)[C@H]2O)[C@H](O)[C@H]1O[C@H]1O[C@H](CO)[C@@H](O)[C@H](N)[C@H]1O [AN, amikacin]",susceptibility,[6]; all PSAE-containing specimens,susceptible
same,MADM resistance phenotype,"[6]; specimen DH 430, Mini-BAL",S
same,MADM resistance phenotype,"[6]; specimen DH 554, BAL",S
same,MADM resistance phenotype,"[6]; specimen DH 641, Mini-BAL",S
same,MADM resistance phenotype,[7],S
same,susceptibility,[7]; all ABCC-containing specimens,susceptible
same,Cx (culture result) susceptibility,"[8]; specimen DH 430, Mini-BAL",S
same,Cx (culture result) susceptibility,"[8]; specimen DH 554, BAL",S
same,Cx (culture result) susceptibility,"[8]; specimen DH 641, Mini-BAL",S
same,"Phenotype, sensitivity",[3]; [10],"growth, TZP-"
same,"Phenotype, sensitivity",[3]; [11],"growth, TZP-"
"C[C@@H](O)[C@H]1C(=O)N2C(C(=O)O)=C(SCCN=CN)C[C@H]12 [IMP, imipenem]",MADM resistance phenotype,"[6]; specimen DH 430, Mini-BAL",S
same,MADM resistance phenotype,"[6]; specimen DH 554, BAL",S
same,MADM resistance phenotype,"[6]; specimen DH 641, Mini-BAL",S
same,MADM resistance phenotype,[7],S
same,Cx (culture result) susceptibility,"[8]; specimen DH 430, Mini-BAL",S
same,Cx (culture result) susceptibility,"[8]; specimen DH 554, BAL",S
same,Cx (culture result) susceptibility,"[8]; specimen DH 641, Mini-BAL",S
same,Cx (culture result) susceptibility,[9],S
